Source: patent US6953779B2, “Melanocortin receptor antagonists and modulations of melanocortin receptor activity” (The Regents of the University of California, priority 1998, dated 2005)
Square brackets hold non-standard residues; d marks the D form. Peptide text beside a SMILES is read from it. * marks the point of attachment. Benzoyl(4-OMe) = COc1ccc(C(=O)*)cc1; d2Thi = N[C@H](Cc1cccs1)C(=O)O

Key:
[1] = target: T1, ACTH (MCR-2) receptor endogenous to murine Y1 adrenocortical cells (Mus musculus, UniProt Q64326); experiment: cAMP concentration-response to ACTH-(1-24) in Y1 cells; type: cell-based; details: for shift of the concentration-response curve of ACTH-(1-24) to the right: 30 μM
T1 construct: the ACTH (MCR-2) receptor endogenous to murine Y1 adrenocortical cells; endogenous in cells; host or cells: murine Y1 adrenocortical cells
Method: (§1) Peptide concentration-response measurements are made in HEK-293 cells by quantifying cAMP levels using a [8-^3H]-CAMP kit from Amersham. Briefly, cells transfected with MC receptors, plated to confluency in 96-well tissue culture plates, are rinsed for 1 hr with 70% (vol/vol) L-15 medium containing 0.5% bovine serum albumin. […] Cellular debris was separated from extracted samples by centrifugation, 400 μL aliquots of the supernatant lyophilized, and total cAMP content quantified by isotope counting.
(§2) Concentration response measurements were made also as described in Example 2, but in Xenopus fibroblasts, COS-7, HEK-293, and Y1 cells.

[2] = tested on: atypical MC receptor in Cos-7 cells; experiment: cAMP concentration-response to α-MSH in Cos-7 cells; type: cell-based
Method: as §1, §2

[3] = target: T2, MC receptors endogenous to Xenopus melanophores (Xenopus laevis, UniProt A0A1L8GF34); details: Quillan and Sadée 1997, cited from earlier work
T2 sequence (A0A1L8GF34 1-317): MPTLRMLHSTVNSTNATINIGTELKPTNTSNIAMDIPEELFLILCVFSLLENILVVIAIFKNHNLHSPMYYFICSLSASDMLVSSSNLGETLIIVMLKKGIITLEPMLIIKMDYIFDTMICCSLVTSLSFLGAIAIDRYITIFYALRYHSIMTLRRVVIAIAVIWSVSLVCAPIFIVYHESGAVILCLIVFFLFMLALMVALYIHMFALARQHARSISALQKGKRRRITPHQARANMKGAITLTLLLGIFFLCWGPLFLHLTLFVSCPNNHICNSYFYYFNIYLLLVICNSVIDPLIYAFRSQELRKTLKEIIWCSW

[4] = target: T3, MCR-4 (Homo sapiens, UniProt P32245); details: Ollmann et al.; cited from earlier work
[5] = target: T4, MCR-1 (Homo sapiens, UniProt Q01726); details: at concentrations up to 100 nM; Ollmann et al.; cited from earlier work
[6] = target: T5, MCR-3 (Homo sapiens, UniProt P41968); details: Ollmann et al.; cited from earlier work
[7] = tested on: dispersion of melanin initiated by norepinephrine, serotonin, vasotocin, PACAP-27; experiment: Selectivity: melanin dispersion initiated by other ligands in melanophores; type: cell-based, Xenopus laevis; details: 30 nM
Method: The selectivity of the MC receptor antagonism by dynorphin A(6-12) analogs was examined.
Melanophore responses were determined by measuring absorbance (OD) ratios taken through a monolayer of cells using a FisherBiotec BT2000 Microplate Reader (Pittsburgh, Pa.). Absorbance was measured before and after a 90 minute exposure to test peptides and then expressed as percent of initial absorbance. (Measurements were taken after 60 minutes pretreatment with 10 nM melatonin to initiate readings from an aggregated state.)

[8] = tested on: heat-induced edema in the anesthetized rat's paw; experiment: Suppression of heat-induced edema in the anesthetized rat's paw (anti-inflammatory); type: in vivo
[9] = target: T4, MCR-1; experiment: cAMP concentration-response to α-MSH in HEK-293 cells transfected with human MCR-1; type: cell-based; set-up: expressed in transfected cells; details: presence and absence of 30 μM antagonist
Source text: (§3) A second method for studying MCR antagonists is to use mammalian cells stably transfected with the cDNA for various human MCR. These transfected cells manifest an increased CAMP response to α-MSH stimulation and agents which antagonize MCR will block this stimulating effect of α-MSH. The inhibitory effects of antagonists can be quantified by the change in the effective concentration (EC50) of α-MSH i the presence of antagonist, or by computation of Ki value by a Schild regression analysis.
Human embryonic kidney (HEK-293) cells were maintained in modified Eagle's medium (DMEM/H-16/F-12) with 10% fetal calf serum (FBS), 100 U/mL penicillin “G” and 100 μg/mL streptomycin (P/S; Gemini). Transfections were performed using cDNA containing the human MCR-1 receptor (pcDNAI/NEO.hMC1), or MCR-4 (pcCMV.hMC4) receptors. HEK-293 cells are stably transformed with the human MCR-1 and MCR-4 receptors by electroporating 20 μg of plasmid cDNA using a Gene Pulser transfection apparatus (450 V, 960 μF; BioRad, Hercules, Calif.). […]
Peptide concentration-response measurements are made in HEK-293 cells by quantifying cAMP levels using a [8-^3H]-CAMP kit from Amersham. […] Cellular debris was separated from extracted samples by centrifugation, 400 μL aliquots of the supernatant lyophilized, and total cAMP content quantified by isotope counting. […]

[10] = target: T3, MCR-4; experiment: cAMP concentration-response to α-MSH in HEK-293 cells transfected with human MCR-4; type: cell-based; set-up: expressed in transfected cells; details: presence and absence of 30 μM antagonist
Method: A second method for studying MCR antagonists is to use mammalian cells stably transfected with the cDNA for various human MCR.
Human embryonic kidney (HEK-293) cells were maintained in modified Eagle's medium (DMEM/H-16/F-12) with 10% fetal calf serum (FBS), 100 U/mL penicillin “G” and 100 μg/mL streptomycin (P/S; Gemini). Transfections were performed using cDNA containing the human MCR-1 receptor (pcDNAI/NEO.hMC1), or MCR-4 (pcCMV.hMC4) receptors. HEK-293 cells are stably transformed with the human MCR-1 and MCR-4 receptors by electroporating 20 μg of plasmid cDNA using a Gene Pulser transfection apparatus (450 V, 960 μF; BioRad, Hercules, Calif.). After six days, stable MC clonal cell lines were selected by addition of 400 μg/ml G-418 to the medium and kept frozen for future use.
as §1
(§4) HEK-293 cells were maintained and transfected As described in Example 2. […]

[11] = target: T5, MCR-3; experiment: cAMP concentration-response to α-MSH in HEK-293 cells transfected with human MCR-3; type: cell-based; set-up: expressed in transfected cells; details: presence and absence of 30 μM antagonist
Source text: as §3
Peptide concentration-response measurements are made in HEK-293 cells by quantifying cAMP levels using a [8-^3H]-CAMP kit from Amersham. Briefly, cells transfected with MC receptors, plated to confluency in 96-well tissue culture plates, are rinsed for 1 hr with 70% (vol/vol) L-15 medium containing 0.5% bovine serum albumin. After a 30 min exposure to test ligands, HEK-293 cells are rinsed twice with ice-cold 70% phosphate-buffered saline (0.07 g/L CaCl2, 0.07 g/L MgCl2.6H2O, 0.14 g/L KH2PO4, 1.51 g/L Na2HPO4.7H2O, 0.14 g/L KCl, 5.6 g/L NaCl, pH 7.4), and intracellular CAMP extracted with 1 mL of 60% (vol/vol) ethanol. Cellular debris was separated from extracted samples by centrifugation, 400 μL aliquots of the supernatant lyophilized, and total cAMP content quantified by isotope counting.
as §4

[12] = tested on: B16-F1 mouse melanoma cells; details: Siegrist et al.; read-out: antiproliferative half-maximal effective concentration; cited from earlier work

T1 sequence (Q64326 whole entry): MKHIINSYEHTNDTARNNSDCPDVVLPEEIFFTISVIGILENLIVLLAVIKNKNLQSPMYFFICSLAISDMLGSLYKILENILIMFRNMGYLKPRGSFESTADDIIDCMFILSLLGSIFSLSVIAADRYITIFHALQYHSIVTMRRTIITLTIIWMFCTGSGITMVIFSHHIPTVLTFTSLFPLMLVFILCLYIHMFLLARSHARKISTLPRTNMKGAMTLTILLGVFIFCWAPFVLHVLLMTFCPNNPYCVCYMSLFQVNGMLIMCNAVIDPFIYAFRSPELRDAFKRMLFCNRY
T1 sequence (Q9D159 whole entry partner): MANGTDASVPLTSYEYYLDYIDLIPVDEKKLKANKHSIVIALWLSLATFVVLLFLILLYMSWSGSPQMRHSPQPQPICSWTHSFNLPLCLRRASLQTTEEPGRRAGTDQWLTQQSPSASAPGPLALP
T5 sequence (P41968 whole entry): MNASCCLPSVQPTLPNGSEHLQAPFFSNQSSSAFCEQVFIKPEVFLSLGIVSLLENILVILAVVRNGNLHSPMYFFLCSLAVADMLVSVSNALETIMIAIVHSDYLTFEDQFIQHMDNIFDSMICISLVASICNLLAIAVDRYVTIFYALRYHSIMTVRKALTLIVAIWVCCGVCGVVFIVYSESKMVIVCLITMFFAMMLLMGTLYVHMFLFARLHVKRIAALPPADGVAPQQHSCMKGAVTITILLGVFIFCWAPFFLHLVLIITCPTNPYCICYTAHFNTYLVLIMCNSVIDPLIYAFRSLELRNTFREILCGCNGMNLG
T3 sequence (P32245 whole entry): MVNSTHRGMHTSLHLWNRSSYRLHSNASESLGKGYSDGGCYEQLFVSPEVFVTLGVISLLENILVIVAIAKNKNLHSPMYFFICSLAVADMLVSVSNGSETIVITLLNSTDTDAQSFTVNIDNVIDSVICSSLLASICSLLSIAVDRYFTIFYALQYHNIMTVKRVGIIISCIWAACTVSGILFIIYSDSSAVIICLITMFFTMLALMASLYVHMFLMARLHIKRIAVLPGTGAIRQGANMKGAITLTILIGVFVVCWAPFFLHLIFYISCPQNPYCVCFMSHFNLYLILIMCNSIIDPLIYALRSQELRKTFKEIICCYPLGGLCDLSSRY
T4 sequence (Q01726 whole entry): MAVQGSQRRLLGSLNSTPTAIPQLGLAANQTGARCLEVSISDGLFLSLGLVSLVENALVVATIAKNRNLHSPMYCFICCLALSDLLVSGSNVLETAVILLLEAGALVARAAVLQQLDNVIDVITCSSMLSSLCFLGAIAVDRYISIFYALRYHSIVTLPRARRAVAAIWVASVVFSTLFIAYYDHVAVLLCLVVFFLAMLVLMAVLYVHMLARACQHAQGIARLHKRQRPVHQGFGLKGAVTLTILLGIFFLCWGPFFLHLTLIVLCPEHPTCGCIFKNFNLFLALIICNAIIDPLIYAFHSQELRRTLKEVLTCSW

## CC[C@H](C)[C@H](NC(=O)[C@H](CCCNC(=N)N)NC(=O)[C@H](CCCNC(=N)N)NC(=O)[C@H](CC(C)C)NC(=O)[C@H](Cc1ccccc1)NC(=O)CNC(=O)CNC(=O)[C@@H](N)Cc1ccc(O)cc1)C(=O)N[C@@H](CCCNC(=N)N)C(=O)N1CCC[C@H]1C(=O)N[C@@H](CCCCN)C(=O)N[C@@H](CC(C)C)C(=O)N[C@@H](CCCCN)C(N)=O [dynorphin A(1-13)-NH2]
[1]; Y1 cells
  effect on basal or forskolin (3 μM) stimulated cAMP production: did not significantly affect
  shift of the concentration-response curve of ACTH-(1-24) to the right: ~200 fold
[1]; from shift in the ACTH concentration-response curve
  estimated Kd: submicromolar range
[2]; 30 μM
  shift of α-MSH EC50: ~50 fold
[2]; read-out: K4
  Kd: ~1000 nM

## Dynorphin A(6-17)
[3]
  antagonist activity: inactive

## agouti-related protein (ARP): agouti-related protein cloned from non-epidermal tissues (SSRRCVRLHESCLGQQVPCCDPCATCYCRFFNAFCYCRKLGTAMNPCSRT; UniProt O00253 83-132, looked up)
[4]
  inhibition for MCR-4: dose dependent inhibition
[5]
  effect on MCR-1: little effect
[6]
  inhibition for MCR-3: dose dependent inhibition

## CSCC[C@@H]1NC(=O)[C@H](C)NC(=O)[C@H]([C@@H](C)O)NC(=O)CNC(=O)[C@H](CC(C)C)NC(=O)[C@H](CCCCN)NC(=O)[C@H](CCCNC(=N)N)NC(=O)[C@@H]2CSSC[C@@H]3NC(=O)[C@@H]4CCCN4C(=O)[C@H](C(C)C)NC(=O)[C@H](CCC(N)=O)NC(=O)[C@H](CCC(N)=O)NC(=O)CNC(=O)[C@H](CC(C)C)NC(=O)[C@@H]4CSSC[C@H](NC(=O)[C@H]([C@@H](C)O)NC(=O)[C@H](C)NC(=O)[C@H](CSSC[C@@H](C(=O)N[C@@H](CO)C(=O)N[C@@H](CCCNC(=N)N)C(=O)N[C@H](C(N)=O)[C@@H](C)O)NC(=O)[C@@H]5CCCN5C(=O)[C@H](CC(N)=O)NC1=O)NC(=O)[C@@H]1CCCN1C(=O)[C@H](CC(=O)O)NC(=O)[C@H](CSSC[C@H](NC(=O)[C@H](CCCNC(=N)N)NC(=O)[C@H](CCCNC(=N)N)NC(=O)[C@H](CO)NC(=O)[C@@H](N)CO)C(=O)N[C@@H](C(C)C)C(=O)N[C@@H](CCCNC(=N)N)C(=O)N[C@@H](CC(C)C)C(=O)N[C@@H](Cc1c[nH]cn1)C(=O)N[C@@H](CCC(=O)O)C(=O)N[C@@H](CO)C(=O)N4)NC3=O)C(=O)N[C@@H](Cc1ccc(O)cc1)C(=O)N[C@H]1CSSC[C@H](NC(=O)[C@H](Cc3ccccc3)NC(=O)[C@H](C)NC(=O)[C@H](CC(N)=O)NC(=O)[C@H](Cc3ccccc3)NC(=O)[C@H](Cc3ccccc3)NC(=O)[C@H](CCCNC(=N)N)NC1=O)C(=O)N[C@@H](Cc1ccc(O)cc1)C(=O)N2 [ARP-(83-132)-NH2, SSRRCVRL HESCLGQQVPCCDPCATCYCRFFNAFCYCRKLGTAMNPCSRT]
[7]
  effect on concentration-response curves evoked with norepinephrine, serotonin, PACAP-27, and Arg8-vasotocin: no effect

## Dynorphin A(2-17) [reference compound]
[3]; against 600 pM α-MSH
  IC50: 190 nM
[8]; in words
  anti-edema activity: at least twice more active

## α-MSH
[1]; up to concentrations of 10 μM
  stimulating cAMP accumulation in Y1 cells: not effective
[2]; read-out: EC50 of α-MSH for cAMP production
  EC50: ~80 nM

## CC[C@H](C)[C@H](NC(=O)[C@@H](Cc1cccs1)NC(=O)[C@H](CC(C)C)NC(=O)[C@H](CC(C)C)NC(=O)[C@H](CCCCN)NC(=O)[C@H](C)NC(=O)c1ccc(OC)cc1)C(=O)N[C@H](CC(C)C)C(N)=O [S-167, p-anisoyl-Ala-Lys-Leu-Leu-D-Thi-Ile-D-Leu-NH2] ({Benzoyl(4-OMe)}-AKLL[d2Thi]I[dL]-NH2)
[8]; i.v., suppression of heat-induced edema in the anesthetized rat's paw
  Anti-Inflammatory ED50: >2 mg/kg

## CC[C@H](C)[C@H](NC(=O)[C@H](CCCNC(=N)N)NC(=O)[C@H](CCCNC(=N)N)NC(=O)[C@H](CC(C)C)NC(=O)[C@H](Cc1ccccc1)NC(=O)CNC(=O)CN)C(=O)N[C@@H](CCCNC(=N)N)C(=O)N1CCC[C@H]1C(=O)N[C@@H](CCCCN)C(=O)N[C@@H](CC(C)C)C(=O)N[C@@H](CCCCN)C(=O)O [dynorphin A(2-13)]
[9]
  Dose ratio from α-MSH dose-response curves: 250±31
[1]; Y1 cells
  shift of the concentration-response curve of ACTH-(1-24) to the right: approximately 15 fold
[10]
  Dose ratio from α-MSH dose-response curves: 147±13
[11]
  Dose ratio from α-MSH dose-response curves: 128±44

B1: ASP: agouti-signaling protein, MCR antagonist elaborated by hair follicle melanocytes (protein, UniProt P42127 23-132, looked up)
Agouti-signaling protein: HLPPEEKLRDDRSLRSNSSVNLLDVPSVSIVALNKKSKQIGRKAAEKKRSSKKEASMKKVVRPRTPLSAPCVATRNSCKPPAPACCDPCASCQCRFFRSACSCRVLSLNC
[12]
  EC50: 13 nM
